Test results: the NIST ThermoML archive (doi:10.1021/je5008795)
± gives the expanded uncertainty stated by the source.

What was measured:
[1] = refractive index (Na D-line) (dimensionless); conditions: 298.15 K; 101.33 kPa; Liquid; Standard Abbe refractometry
[2] = for mass density: 298.15 K, 101 kPa, Vibrating tube method; for vapor or sublimation pressure: Transpiration method
[3] = refractive index (Na D-line) (dimensionless); xn = mol fraction of the nth substance listed; conditions: 298.15 K, 101 kPa, Liquid, Standard Abbe refractometry
[4] = xn = mol fraction of the nth substance listed; conditions: 298.15 K, 101 kPa, Liquid, Vibrating tube method

ClC(Cl)(Cl)Cl [tetrachloromethane]
Conditions	refractive index
[1]	1.45715 ± 0.00031

Conditions	mass density [kg/m3]
[2], Liquid	1584.26 ± 0.27

Brc1cccc(Br)c1 [1,3-dibromobenzene]
[2], Liquid
Conditions	vapor or sublimation pressure [kPa]
276.4 K	0.00508 ± 0.00037
278.7 K	0.00646 ± 0.00047
281.1 K	0.00785 ± 0.00056
282.3 K	0.0086 ± 0.00062
284.7 K	0.01072 ± 0.00077
286.9 K	0.01274 ± 0.00091
288.8 K	0.01468 ± 0.0011
289.2 K	0.0154 ± 0.0011
292.3 K	0.01899 ± 0.0014
292.8 K	0.01997 ± 0.0014
295 K	0.02324 ± 0.0016
296.2 K	0.02592 ± 0.0019
298.8 K	0.03143 ± 0.0022
301 K	0.03698 ± 0.0027
301.1 K	0.03822 ± 0.0027
304.2 K	0.04771 ± 0.0033
304.9 K	0.0474 ± 0.0034
307.2 K	0.05893 ± 0.0042
308.9 K	0.06635 ± 0.0047
310 K	0.07138 ± 0.005
312.9 K	0.08294 ± 0.006
313.3 K	0.08608 ± 0.0062
315.2 K	0.1012 ± 0.0072
317.8 K	0.1178 ± 0.0083

c1ccccc1 [benzene] + Brc1ccccc1Br
x2 = 0
Conditions	mass density [kg/m3]	refractive index
[3]	–	1.49776 ± 0.00031
[4]	873.478 ± 0.19	–

Brc1ccc(-c2ccc(Br)cc2)cc1 [4,4'-dibromo-1,1'-biphenyl] + c1ccccc1
Conditions	mass density, x1 = 0.00076 [kg/m3]	mass density, x1 = 0.0009 [kg/m3]	mass density, x1 = 0.00107 [kg/m3]	mass density, x1 = 0.00116 [kg/m3]	refractive index, x1 = 0.00076	refractive index, x1 = 0.0009	refractive index, x1 = 0.00107	refractive index, x1 = 0.00116
[3]	–	–	–	–	1.49787 ± 0.00031	1.49791 ± 0.00031	1.49796 ± 0.00031	1.49802 ± 0.00031
[4]	875.001 ± 0.2	875.213 ± 0.2	875.48 ± 0.2	875.632 ± 0.2	–	–	–	–

Brc1ccc(-c2ccc(Br)cc2)cc1 [4,4'-dibromo-1,1'-biphenyl]
[2], Crystal
Conditions	vapor or sublimation pressure [kPa]
358.1 K	0.00038 ± 3e-05
363.9 K	0.00067 ± 5e-05
365.4 K	0.00077 ± 6e-05
368.4 K	0.00099 ± 7e-05
373.5 K	0.00162 ± 0.00012
378.5 K	0.00243 ± 0.00017
383.5 K	0.00367 ± 0.00026
388.6 K	0.00579 ± 0.00042
393.3 K	0.00851 ± 0.0006
396.6 K	0.01049 ± 0.00075
399.6 K	0.0138 ± 0.00098
400.4 K	0.0144 ± 0.001
402.6 K	0.0171 ± 0.0012
404.4 K	0.02039 ± 0.0015

Clc1c(Cl)c(Cl)c(Cl)c(Cl)c1Cl [hexachlorobenzene] + ClC(Cl)(Cl)Cl
Conditions	mass density, x1 = 0.00028 [kg/m3]	mass density, x1 = 0.00052 [kg/m3]	mass density, x1 = 0.00066 [kg/m3]	mass density, x1 = 0.00094 [kg/m3]	refractive index, x1 = 0.00028	refractive index, x1 = 0.00052	refractive index, x1 = 0.00066	refractive index, x1 = 0.00094
[3]	–	–	–	–	1.45724 ± 0.00031	1.45734 ± 0.00031	1.45735 ± 0.00031	1.45743 ± 0.00031
[4]	1584.37 ± 0.27	1584.53 ± 0.27	1584.53 ± 0.27	1584.63 ± 0.27	–	–	–	–

c1ccccc1 [benzene]
Conditions	refractive index
[1]	1.49755 ± 0.00031

Conditions	mass density
[2], Liquid	873.633 ± 0.13 kg/m3 [middle of 6 runs]

Brc1ccc(-c2ccccc2)cc1 [4-bromo-1,1'-biphenyl] + c1ccccc1
Conditions	mass density, x1 = 0.00109 [kg/m3]	mass density, x1 = 0.00186 [kg/m3]	mass density, x1 = 0.00189 [kg/m3]	mass density, x1 = 0.00237 [kg/m3]	refractive index, x1 = 0.00109	refractive index, x1 = 0.00186	refractive index, x1 = 0.00189	refractive index, x1 = 0.00237
[3]	–	–	–	–	1.49787 ± 0.00031	1.4981 ± 0.00031	1.49809 ± 0.00031	1.4982 ± 0.00031
[4]	874.692 ± 0.16	875.469 ± 0.16	875.45 ± 0.16	875.983 ± 0.17	–	–	–	–

Brc1ccc(Br)cc1 [1,4-dibromobenzene]
[2], Crystal
Conditions	vapor or sublimation pressure [kPa]
296.5 K	0.00693 ± 0.00051
299.5 K	0.00922 ± 0.00067
302.4 K	0.01272 ± 0.00092
303.5 K	0.01383 ± 0.001
305.4 K	0.01701 ± 0.0012
308.4 K	0.02188 ± 0.0016
309.4 K	0.02467 ± 0.0018
311.4 K	0.02936 ± 0.0021
314.4 K	0.03757 ± 0.0027
317.4 K	0.04642 ± 0.0033
319.4 K	0.05898 ± 0.0043
320.4 K	0.06313 ± 0.0046
323.4 K	0.08309 ± 0.006
329.6 K	0.143 ± 0.01
